Test results: EP4782453A1 (Beyang Therapeutics Co., Ltd., priority 2023, dated 2025)
Where two headings read alike, the source gives them in different places.

Key:
Menin-MLL = molecular target: T1, Menin-MLL (Homo sapiens, UniProt O00255); assay: Inhibitory activity against Menin-MLL binding (fluorescence polarization); details: 150 nM His-Menin, 15 nM FITC-MLL, 25°C for 60 min
T1 construct: His-Menin (M1-L615 end); purchased BIORTUS BP9210
T1 sequence (O00255 1-615 isoform O00255-1): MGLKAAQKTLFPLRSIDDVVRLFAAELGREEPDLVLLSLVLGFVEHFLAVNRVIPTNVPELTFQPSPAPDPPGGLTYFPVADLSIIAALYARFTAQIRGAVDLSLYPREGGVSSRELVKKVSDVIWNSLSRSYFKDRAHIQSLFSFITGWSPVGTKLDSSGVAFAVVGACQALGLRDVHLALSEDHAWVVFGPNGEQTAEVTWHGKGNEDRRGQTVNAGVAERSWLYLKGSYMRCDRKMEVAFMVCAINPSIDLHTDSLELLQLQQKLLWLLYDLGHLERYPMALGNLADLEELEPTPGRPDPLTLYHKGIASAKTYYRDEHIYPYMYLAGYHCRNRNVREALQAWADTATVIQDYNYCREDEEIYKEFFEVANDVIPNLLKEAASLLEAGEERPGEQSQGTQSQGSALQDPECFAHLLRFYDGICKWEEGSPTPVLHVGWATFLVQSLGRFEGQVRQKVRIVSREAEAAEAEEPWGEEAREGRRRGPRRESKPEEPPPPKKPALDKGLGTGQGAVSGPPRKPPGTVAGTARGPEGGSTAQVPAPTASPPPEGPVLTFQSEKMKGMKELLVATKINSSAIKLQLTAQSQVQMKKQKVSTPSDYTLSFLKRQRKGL
Procedure, shortened: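 Fluorescence polarization competition: compound and 150 nM His-tagged menin (residues M1-L615) sit 15 min at 25 °C in pH 7.5 HEPES buffer with NaCl, DTT and BSA; 15 nM FITC-labelled MLL peptide then binds for 60 min. IC50 fitted sigmoidally from mP values, duplicate wells.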

[1] = tested on: MV-4-11 (carrying MLL-AF4); assay: Inhibition of proliferation of human tumor cells (Alamar Blue, 7 days), MV-4-11; format: cell-based; details: Homo sapiens, MV4-11, 168 h, MV-4-11 cells (carrying MLL-AF4), method calls the value GI50
Procedure, shortened: (§1)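 GI50 from Alamar Blue fluorescence after 7-day compound exposure, duplicate wells, using Day-0 and Day-7 0.1% DMSO wells as low and high controls. MV-4-11 in IMDM/10% FBS and MOLM-13 in RPMI-1640/20% FBS at 4,000 cells/well; KG-1a in IMDM/20% FBS at 3,000 cells/well.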

KG-1a (wild-type MLL) = assay: Inhibition of proliferation of human tumor cells (Alamar Blue, 7 days), KG-1a control cell line; format: cell-based; details: 168 h, KG-1a cells (wild-type MLL, control cell line), method calls the value GI50
From the text: Experimental Example 2: Evaluation of Inhibitory Activity of Compounds Against Proliferation of Human Tumor Cells
• Human acute lymphoblastic leukemia cells MV-4-11, purchased from American Type Culture Collection, Catalog Number: CRL-9591; • Human acute myeloid leukemia cells MOLM-13, purchased from COBIOER BIOSCIENCES CO., LTD, Catalog Number: CBP60678; • Human acute myeloid leukemia cells KG-1a, purchased from American Type Culture Collection, Catalog Number: CCL-246.1; • Inverted Microscope, purchased from Olympus Tokyo; • Countess™ Automated Cell Counter, purchased from Invitrogen, Model: C10281; and • Multilabel Reader, purchased from Bio-Tek, Model: Synergy HT.
MV-4-11 cells were cultured in an IMDM medium containing 10% fetal bovine serum, KG-a cells were cultured in an IMDM medium containing 20% fetal bovine serum, or MOLM-13 cells were cultured in an RPMI-1640 medium containing 20% fetal bovine serum, each supplemented with 100 U·mL^-1 penicillin and 100 µg·mL^-1 streptomycin. These cells were cultured at 37°C with 5% CO2. The suspensions of individual cell lines were prepared in their respective media and seeded into 96-well plates at a density of 4,000 cells/well for MV-4-11 and MOLM-13 cells, or 3,000 cells/well for KG-1a cells. On the day of the experiment, a compound stock solution was diluted in a 3-fold or 4-fold gradient using DMSO. Each gradient-diluted stock solution was then further diluted 250-fold with a complete medium to prepare a series of working solutions at different concentrations. Subsequently, 100 µL of working solution (containing a 2-fold concentration series of the test compound) was added to each well, with duplicate wells set up for each concentration.
Seven days after compound addition (on Day 7), an Alamar Blue assay reagent (MCE, HY-111391 / CS-0040317) was added to measure the fluorescence intensity in each well. Wells containing the cells in the growth medium supplemented with 0.1% DMSO (Day 7) served as high-read control wells. The readouts from the wells containing the cells in the growth medium supplemented with 0.1% DMSO on the day of compound addition (Day 0) served as low-reading control well. GraphPad Prism software was used to calculate the concentration required to inhibit 50% of cell proliferation (GI50), which serves as a cell proliferation inhibition activity index.

[2] = tested on: MOLM-13 (carrying MLL-AF9); assay: Inhibition of proliferation of human tumor cells (Alamar Blue, 7 days), MOLM-13; format: cell-based; details: Homo sapiens, MOLM-13 cells (carrying MLL-AF9), method calls the value GI50
Procedure, shortened: as §1

[3] = Menin-MLL IC50, fluorescence polarization
[4] = fluorescence polarization, read-out: Menin-MLL IC50

SMILES | IC50 (Menin-MLL; [3]) [µM] | IC50 [1] [µM] | IC50 (KG-1a (wild-type MLL)) [µM] | IC50 (Menin-MLL; read-out: Menin-MLL IC50, fluorescence polarization) [µM] | IC50 (Menin-MLL; [4]) [µM] | IC50 ([2]; 168 h) [µM] | IC50 ([2]; MOLM-13, 168 h) [µM]
CCN(C(=O)c1cc(F)ccc1-c1cc(C2CCN(C[C@H]3CC[C@H](NS(=O)(=O)CC)CC3)C2)cc2c1cnn2C)C(C)C (stereo partly drawn) [Example 15, N-ethyl-5-fluoro-2-[1-methyl-6-(1-{[(1r,4r)-4-ethanesulfonamidocyclohexyl]methyl}pyrrolidin-3-yl)-1H-indazol-4-yl]-N-isopropylbenzamide] | 0.0115 | 0.023 | 17 | – | – | – | –
CCN(C(=O)c1cc(F)ccc1-c1cc(C2=CCC(NCc3ccc4oc(=O)[nH]c4c3)CC2)cn2cncc12)C(C)C (stereo not drawn) [Example 16, N-ethyl-5-fluoro-2-[6-(4-{[(2-oxo-2,3-dihydro-l,3-benzoxazol-5-yl)methyl]amino}cyclohexyl-1-ene-1-yl)imidazo[1,5-a]pyridin-8-yl]-N-isopropylbenzamide] | – | 0.014 | 20 | 0.0145 | – | – | –
CCN(C(=O)c1cc(F)ccc1-c1cc(C2=CCC(NCc3ccc(-c4cc(OC)c(OC)nn4)cc3)CC2)cn2cncc12)C(C)C (stereo not drawn) [Example 17] | – | 0.017 | 20 | – | 0.0095 | – | –
CCN(C(=O)c1cc(F)ccc1-c1cc(N2CCC(NCc3ccc(-c4cc(OC)c(OC)nn4)cc3)CC2)cn2cncc12)C(C)C [Example 19, 2-{6-[4-({[4-(5,6-dimethoxypyridazin-3-yl)phenyl]methyl}amino)piperidin-1-yl]imidazo[1,5-a]pyridin-8-yl}-N-ethyl-5-fluoro-N-isopropylbenzamide] | – | 0.049 | 20 | – | 0.0435 | – | –
CCN(C(=O)c1cc(F)ccc1-c1cc(N2CCC(NCc3ccc(-c4cc(OC)c(OC)nn4)cc3F)CC2)cn2cncc12)C(C)C [Example 20] | – | 0.054 | 20 | – | 0.045 | – | –
CCN(C(=O)c1cc(F)ccc1-c1cc([C@H]2CCN(C[C@H]3CC[C@H](NS(=O)(=O)CC)CC3)C2)cn2cncc12)C(C)C [Example 22-1, N-ethyl-5-fluoro-N-isopropyl-2-{6-[(3R)-1-{[(1r,4r)-4-ethanesulfonamidocyclohexyl]methyl}pyrrolidin-3-yl]imidazo[1,5-a]pyridin-8-yl}benzamide] | 0.023 | 0.079 | 20 | – | – | – | –
CCN(C(=O)c1cc(F)ccc1-c1cc([C@@H]2CCN(C[C@H]3CC[C@H](NS(=O)(=O)CC)CC3)C2)cn2cncc12)C(C)C [Example 22-2] | 0.014 | 0.022 | 20 | – | – | – | –
CCN(C(=O)c1cc(F)ccc1-c1cc([C@@H]2CCN(C[C@H]3CC[C@H](NS(=O)(=O)CC)CC3)C2)cc2cncn12)C(C)C [Example 25-1, N-ethyl-5-fluoro-N-isopropyl-2-{7-[(3S)-1-{[(1r,4r)-4-ethanesulfonamidocyclohexyl]methyl}pyrrolidin-3-yl]imidazo[1,5-a]pyridin-5-yl}benzamide] | 0.0057 | 0.0047 | 12.6 | – | – | – | –
Cc1ncc2c(-c3ccc(F)cc3C(=O)N(C(C)C)C3CC3)cc(N3CCN(C(=O)C4NC5CCC4CC5)CC3)cn12 [Example 72, N-cyclopropyl-5-fluoro-2-(3-methyl-6-{4-[(1R,3S,4S)-2-azabicyclo[2.2.2]octan-3-carbonyl]piperazin-1-yl}imidazo[1,5-a]pyridin-8-yl)-N-(isopropyl)benzamide] | 0.054 | 0.057 | 20 | – | – | – | –
CCN(C(=O)c1cc(F)ccc1-c1cc(C2CN([C@H](CCCN(C)CCOC)C(C)C)C2)cn2c(C)nc(F)c12)C(C)C [Example 307-2, N-ethyl-5-fluoro-2-(1-fluoro-6-{1-[(3R)-6-[(2-methoxyethyl)(methyl)amino]-2-methylhexan-3-yl]azacyclobutan-3-yl}-3-methylimidazo[1,5-a]pyridin-8-yl)-N-(isopropyl)benzamide] | – | 0.00069 | – | – | 0.006 | 0.0037 | –
Cc1nc(F)c2c(-c3ccc(F)cc3C(=O)N3CCOC[C@H]3C)cc(C3CN([C@H](CCCN4CCn5nccc5C4)C(C)C)C3)cn12 [Example 351, (3R)-4-[5-fluoro-2-(1-fluoro-3-methyl-6-{1-[(3R)-2-methyl-6-{4H,5H,6H,7H-pyrazolo[1,5-a]pyrazin-5-yl}hexan-3-yl]azacyclobutan-3-yl}imidazo[1,5-a]pyridin-8-yl)benzoyl]-3-methylmorpholine] | – | – | > 20 | – | 0.0125 | 0.044 | –
CC(C)[C@@H](CCCN1CCN(C)CC1)N1CC(c2cc(-c3ccc(F)cc3C(=O)N3CCOC[C@H]3C)c3cnn(C)c3c2)C1 [Example 358] | 0.0135 | – | > 20 | – | – | – | 0.091
CCN(C(=O)c1cc(F)ccc1-c1cc(C2CN([C@H](CCCN3CCC(OC)CC3)C(C)C)C2)cn2c(C)ncc12)C(C)C [Example 389, N-ethyl-5-fluoro-2-(6-{1-[(3R)-6-(4-methoxypiperidin-1-yl)-2-methylhexan-3-yl]azacyclobutan-3-yl}-3-methylimidazo[1,5-a]pyridin-8-yl)-N-(isopropyl)benzamide] | – | – | 12 | – | 0.0019 | 0.0053 | –
CCN(C(=O)c1cc(F)ccc1-c1cc(C2CN([C@H](CCCO)C(C)C)C2)cn2c(C)ncc12)C(C)C [Example 396, N-ethyl-5-fluoro-2-(6-{1-[(3R)-6-hydroxyl-2-methylhexan-3-yl]azacyclobutan-3-yl}-3-methylimidazo[1,5-a]pyridin-8-yl)-N-(isopropyl)benzamide] | – | – | > 20 | – | 0.003 | 0.022 | –
CCN(C(=O)c1cc(F)ccc1-c1cc(C2CN([C@H](CN3CCN(C)CC3)C(C)C)C2)cc2c1cnn2C)C(C)C [Example 402-2, N-ethyl-5-fluoro-2-(1-methyl-6-{1-[(2S)-3-methyl-1-(4-methylpiperazin-1-yl)butan-2-yl]azacyclobutan-3-yl}-1H-indazol-4-yl)-N-(isopropyl)benzamide] | – | – | 11 | – | 0.01 | 0.065 | –
CCN(C(=O)c1cc(F)ccc1-c1cc(C2CN([C@H](CN3CCN(C)CC3)C(C)C)C2)cn2c(C)ncc12)C(C)C [Example 403-1, N-ethyl-5-fluoro-2-(3-methyl-6-{1-[(2S)-3-methyl-1-(4-methylpiperazin-1-yl)butan-2-yl]azacyclobutan-3-yl}imidazo[1,5-a]pyridin-8-yl)-N-(isopropyl)benzamide] | – | – | 15 | – | 0.0039 | 0.0077 | –
CCN(C(=O)c1cc(F)ccc1-c1cc(C2CN([C@H](CCCN3CCN(C)CC3)C(C)C)C2)cc2c1cnn2C)C(C)C [Example 420] | – | 0.018 | – | – | 0.0038 | 0.043 | –
